Results on 22 compounds are retold here after US9840478B2 (MERCK SHARP & DOHME CORP., priority 2013, dated 2017).

The test system of this assay is HIV-1 (H9IIIB strain). In words: Cell-based HIV infection assay using a reporter (Cell-Based), MT4-GFP cells. The conditions noted are these: Human immunodeficiency virus 1, MT4-GFP cells infected with HIV-1 H9IIIB; 50% normal human serum; mean of at least two independent experiments; read-out: Cell-based IP. An outline of the steps: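 MT4-GFP cells (HIV LTR-driven GFP) infected 24 h with HIV-1 H9IIIB at low MOI, then washed and plated with compounds in RPMI + 50% normal human serum, 0.4% DMSO final. Green cells counted at 24 and 48 h; R0 = 48 h/24 h ratio, inhibition normalized to DMSO and triple-drug control; IC50 from 4-parameter fit.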

In the case of `COC(=O)N[C@H](C(=O)Nc1cncc(F)c1CC[C@H]1CNC[C@H](C)N1S(=O)(=O)c1ccccc1Cl)[C@@H](c1ccc(F)cc1)c1cc(F)cc(F)c1` [Example 272, (βS)-N-[4-(2-{(2S,6S)-1-[(2-chlorophenyl)sulfonyl]-6-methylpiperazin-2-yl}ethyl)-5-fluoropyridin-3-yl]-β-(3,5-difluorophenyl)-4-fluoro-Nα-(methoxycarbonyl)-L-phenylalaninamide], the IC50 worked out at 49 nM.

On to `C[C@H]1CNC[C@H](CCc2c(F)cncc2NC(=O)[C@@H](N)[C@@H](c2ccc(Cl)cc2)C2CCOCC2)N1S(=O)(=O)c1ccc(Cl)cc1` [Example 273, (βR)-4-chloro-N-[4-(2-{(2S,6S)-1-[(4-chlorophenyl)sulfonyl]-6-methylpiperazin-2-yl}ethyl)-5-fluoropyridin-3-yl]-β-(tetrahydro-2H-pyran-4-yl)-L-phenylalaninamide], for which the IC50 is 11 nM.

On to `COC(=O)N[C@H](C(=O)Nc1cncc(F)c1CC[C@H]1CNC[C@H](C)N1S(=O)(=O)c1ccccc1)[C@@H](c1ccc(Cl)cc1)C1CCOCC1` [Example 274, (βR)-4-chloro-N-(5-fluoro-4-{2-[(2S,6S)-6-methyl-1-(phenylsulfonyl)piperazin-2-yl]ethyl}pyridin-3-yl)-Nα-(methoxycarbonyl)-β-(tetrahydro-2H-pyran-4-yl)-L-phenylalaninamide], for which the IC50 came to 22 nM.

As for `COC(=O)N[C@H](C(=O)Nc1cccc(F)c1CC[C@H]1CNC[C@@H](C)N1S(=O)(=O)c1ccccc1)C1(c2ccc(Cl)cc2)CCOCC1` [Example 275, methyl {(1S)-1-[4-(4-chlorophenyl)tetrahydro-2H-pyran-4-yl]-2-[(3-fluoro-2-{2-[(2S,6R)-6-methyl-1-(phenylsulfonyl)piperazin-2-yl]ethyl}phenyl)amino]-2-oxoethyl}carbamate], the IC50 worked out at 19 nM.

On to `COC(=O)N[C@H](C(=O)Nc1cccc(F)c1CC[C@H]1CNC[C@H](C)N1S(=O)(=O)c1ccccc1)C1(c2ccc(Cl)cc2)CCOCC1` [Example 276, methyl {(1S)-1-[4-(4-chlorophenyl)tetrahydro-2H-pyran-4-yl]-2-[(3-fluoro-2-{2-[(2S,6S)-6-methyl-1-(phenylsulfonyl)piperazin-2-yl]ethyl}phenyl)amino]-2-oxoethyl}carbamate], for which the IC50 was 9.1 nM.

As for `C[C@H]1CNC[C@H](CCc2c(F)cncc2NC(=O)[C@@H](N)[C@@H](c2ccc(Cl)cc2)C2CCOCC2)N1S(=O)(=O)c1ccccc1` [Example 277, (βR)-4-chloro-N-(5-fluoro-4-{2-[(2S,6S)-6-methyl-1-(phenylsulfonyl)piperazin-2-yl]ethyl}pyridin-3-yl)-β-(tetrahydro-2H-pyran-4-yl)-L-phenylalaninamide], the IC50 worked out at 15 nM.

As to `C[C@H]1CNC[C@H](CCc2c(F)cccc2NC(=O)[C@@H](N)C2(c3cc(F)cc(F)c3)CCOCC2)N1S(=O)(=O)c1ccccc1` [Example 278, (2S)-2-amino-2-[4-(3,5-difluorophenyl)tetrahydro-hydro-2H-pyran-4-yl]-N-(3-fluoro-2-{2-[(2S,6S)-6-methyl-1-(phenylsulfonyl)piperazin-2-yl]ethyl}phenyl) ethanamide], the IC50 stood at 140 nM.

Regarding `COC(=O)N[C@H](C(=O)Nc1cncc(F)c1CC[C@H]1CNC[C@@H](C)N1S(=O)(=O)c1ccccc1)[C@@H](c1ccc(Cl)cc1)C1CCOCC1` [Example 279, (βR)-4-chloro-N-(5-fluoro-4-{2-[(2S,6R)-6-methyl-1-(phenylsulfonyl)piperazin-2-yl]ethyl}pyridin-3-yl)-Nα-(methoxycarbonyl)-β-(tetrahydro-2H-pyran-4-yl)-L-phenylalaninamide], the IC50 is 16 nM.

For `C[C@@H]1CNC[C@H](CCc2c(F)cncc2NC(=O)[C@@H](N)[C@@H](c2ccc(Cl)cc2)C2CCOCC2)N1S(=O)(=O)c1ccccc1` [Example 280, (βR)-4-chloro-N-(5-fluoro-4-{2-[(2S,6R)-6-methyl-1-(phenylsulfonyl)piperazin-2-yl]ethyl}pyridin-3-yl)-β-(tetrahydro-2H-pyran-4-yl)-L-phenylalaninamide], the IC50 came to 16 nM.

`COC(=O)N[C@H](C(=O)Nc1cncc(F)c1CC[C@H]1CNC[C@@H](C)N1S(=O)(=O)c1ccc(Cl)cc1)[C@@H](c1ccc(Cl)cc1)C1CCOCC1` [Example 281, (βR)-4-chloro-N-[4-(2-{(2S,6R)-1-[(4-chlorophenyl)sulfonyl]-6-methylpiperazin-2-yl}ethyl)-5-fluoropyridin-3-yl]-Nα-(methoxycarbonyl)-β-(tetrahydro-2H-pyran-4-yl)-L-phenylalaninamide]: the IC50 stood at 13 nM.

Consider `COC(=O)N[C@H](C(=O)Nc1cncc(F)c1CC[C@H]1CNC[C@H](C)N1S(=O)(=O)c1ccc(Cl)cc1)[C@@H](c1ccc(Cl)cc1)C1CCOCC1` [Example 282, (βR)-4-chloro-N-[4-(2-{(2S,6S)-1-[(4-chlorophenyl)sulfonyl]-6-methylpiperazin-2-yl}ethyl)-5-fluoropyridin-3-yl]-Nα-(methoxycarbonyl)-β-(tetrahydro-2H-pyran-4-yl)-L-phenylalaninamide], for which the IC50 came out at 11 nM.

For the compound `COC(=O)N[C@H](C(=O)Nc1cccc(F)c1CC[C@H]1CNC[C@@H](C)N1S(=O)(=O)c1ccccc1)[C@@H](c1cc(F)cc(F)c1)C1CCOCC1` [Example 283, (βR)-3,5-difluoro-N-(3-fluoro-2-{2-[(2S,6R)-6-methyl-1-(phenylsulfonyl)piperazin-2-yl]ethyl}phenyl)-Nα-(methoxycarbonyl)-β-(tetrahydro-2H-pyran-4-yl)-L-phenylalaninamide], the IC50 was found to be 14 nM.

Regarding `C[C@@H]1CNC[C@H](CCc2c(F)cccc2NC(=O)[C@@H](N)[C@@H](c2cc(F)cc(F)c2)C2CCOCC2)N1S(=O)(=O)c1ccccc1` [Example 284, (βR)-3,5-difluoro-N-(3-fluoro-2-{2-[(2S,6R)-6-methyl-1-(phenylsulfonyl)piperazin-2-yl]ethyl}phenyl)-β-(tetrahydro-2H-pyran-4-yl)-L-phenylalaninamide], the IC50 came out at 40 nM.

Turning to `COC(=O)N[C@H](C(=O)Nc1cccc(F)c1CC[C@H]1CNC[C@@H](C)N1S(=O)(=O)c1ccccc1)C1(c2cc(F)cc(F)c2)CCOCC1` [Example 285, methyl {(1S)-1-[4-{3,5-difluorophenyl)tetrahydro-2H-pyran-4-yl]-2-[(3-fluoro-2-{2-[(2S,6R)-6-methyl-1-(phenylsulfonyl)piperazin-2-yl]ethyl}phenyl)amino]-2-oxoethyl}carbamate], the IC50 came to 29 nM.

Turning to `COC(=O)N[C@H](C(=O)Nc1cccc(F)c1CC[C@H]1CNC[C@H](C)N1S(=O)(=O)c1ccccc1)C1(c2cc(F)cc(F)c2)CCOCC1` [Example 286, methyl {(1S)-1-[4-(3,5-difluorophenyl)tetrahydro-2H-pyran-4-yl]-2-[(3-fluoro-2-{2-[(2S,6S)-6-methyl-1-(phenylsulfonyl)piperazin-2-yl]ethyl}phenyl)amino]-2-oxoethyl}carbamate], the IC50 came out at 33 nM.

For the compound `C[C@@H]1CNC[C@H](CCc2c(F)cccc2NC(=O)[C@@H](N)C2(c3cc(F)cc(F)c3)CCOCC2)N1S(=O)(=O)c1ccccc1` [Example 287, (2S)-2-amino-2-[4-(3,5-difluorophenyl)tetrahydro-2H-pyran-4-yl]-N-(3-fluoro-2-{2-[(2S,6R)-6-methyl-1-(phenylsulfonyl)piperazin-2-yl]ethyl}phenyl)ethanamide], the IC50 was 91 nM.

On to `C[C@@H]1CNC[C@H](CCc2c(F)cccc2NC(=O)[C@@H](N)[C@@H](c2ccc(F)c(F)c2)C2CCOCC2)N1S(=O)(=O)c1ccccc1` [Example 288, (βR)-3,4-difluoro-N-(3-fluoro-2-{2-[(2S,6R)-6-methyl-1-(phenylsulfonyl)piperazin-2-yl]ethyl}phenyl)-β-(tetrahydro-2H-pyran-4-yl)-L-phenylalaninamide], for which the IC50 turned out to be 23 nM.

For `C[C@H]1CNC[C@H](CCc2c(F)cccc2NC(=O)[C@@H](N)[C@@H](c2ccc(F)c(F)c2)C2CCOCC2)N1S(=O)(=O)c1ccccc1` [Example 289, (βR)-3,4-difluoro-N-(3-fluoro-2-{2-[(2S,6S)-6-methyl-1-(phenylsulfonyl)piperazin-2-yl]ethyl}phenyl)-β-(tetrahydro-2H-pyran-4-yl)-L-phenylalaninamide], the IC50 was 23 nM.

For `COC(=O)N[C@H](C(=O)Nc1cccc(F)c1CC[C@H]1CNC[C@@H](C)N1S(=O)(=O)c1ccccc1)C1(c2ccc(F)c(F)c2)CCOCC1` [Example 290, methyl {(1S)-1-[4-(3,4-difluorophenyl)tetrahydro-2H-pyran-4-yl]-2-[(3-fluoro-2-{2-[(2S,6R)-6-methyl-1-(phenylsulfonyl)piperazin-2-yl]ethyl}phenyl)amino]-2-oxoethyl}carbamate], the IC50 was 15 nM.

On to `C[C@@H]1CNC[C@H](CCc2c(F)cccc2NC(=O)[C@@H](N)C2(c3ccc(F)c(F)c3)CCOCC2)N1S(=O)(=O)c1ccccc1` [Example 291, (2S)-2-amino-2-[4-(3,4-difluorophenyl)tetrahydro-2H-pyran-4-yl]-N-(3-fluoro-2-{2-[(2S,6R)-6-methyl-1-(phenylsulfonyl)piperazin-2-yl]ethyl}phenyl)ethanamide], for which the IC50 was 100 nM.

In the case of `C[C@H]1CNC[C@H](CCc2c(F)cccc2NC(=O)[C@@H](N)C2(c3ccc(F)c(F)c3)CCOCC2)N1S(=O)(=O)c1ccccc1` [Example 292, (2S)-2-amino-2-[4-(3,4-difluorophenyl)tetrahydro-2H-pyran-4-yl]-N-(3-fluoro-2-{2-[(2S,6S)-6-methyl-1-(phenylsulfonyl)piperazin-2-yl]ethyl}phenyl)ethanamide], the IC50 is 130 nM.

Turning to `COC(=O)N[C@H](C(=O)Nc1cccc(F)c1CC[C@H]1CNC[C@@H](C)N1S(=O)(=O)c1ccccc1)[C@@H](c1ccc(F)c(F)c1)C1CCOCC1` [Example 293, (βR)-3,4-difluoro-N-(3-fluoro-2-{2-[(2S,6R)-6-methyl-1-(phenylsulfonyl)piperazin-2-yl]ethyl}phenyl)-Nα-(methoxycarbonyl)-β-(tetrahydro-2H-pyran-4-yl)-L-phenylalaninamide], the IC50 was 8.7 nM.
